This passage reports IC50 results from patent US8546380B2, “Aminodihydrothiazine derivatives” (Shionogi & Co., Ltd., priority 2005, dated 2013).

Like-named read-outs stand apart in the source and are kept apart here.

As usually defined, the IC50 is the point on the concentration scale where inhibition reaches its midpoint.

This assay has as its target recombinant human BACE-1 protein (Homo sapiens (Human), UniProt P56817). The experiment in a line: Measurement of Inhibition of β-Secretase Activity. In kind it is biochemical. The following applies: 3 h at 30° C., pH5.0, read-out: IC50 value. As to the method: Zero point five μL of the test compounds (dissolved in N,N′-dimethylsulfoxide) were incubated with 48.5 μL of the fluorescence-quenched peptide substrate solution (Biotin-XSEVNLDAEFRHDSGC-Eu:X=ε-amino-n-capronic acid, Eu=Europium cryptate) and 1 μL of recombinant human BACE-1 protein (R&D systems) for 3 h at 30° C. in the 96 well half-area plate (black color plate, Costar). The substrate peptide was synthesized by reacting with Biotin-XSEVNLDAEFRHDSGC (Peptide Institute) and Cryptate TBPCOOH mono SMP (CIS bio international). […] The enzymatic reaction was performed in sodium acetate buffer (50 mM sodium acetate (pH5.0), 0.008% Triton X-100). After the reaction, a 50 μL of 8.0 μg/mL Streptavidin-XL665 (CIS bio international) dissolved in phosphate buffer (150 mM K2HPO4—KH2PO4 (pH 7.0), 0.008% Triton X-100, 0.8 M KF) was add to each well and incubated for 1 h at 30° C.

[1] abbreviates: fluorescence-quenched peptide substrate 18 nM, BACE-1 7.4 nM.
Setting [2] is: recombinant human BACE-1 protein.

recombinant human BACE-1 protein, sequence (P56817 46-501): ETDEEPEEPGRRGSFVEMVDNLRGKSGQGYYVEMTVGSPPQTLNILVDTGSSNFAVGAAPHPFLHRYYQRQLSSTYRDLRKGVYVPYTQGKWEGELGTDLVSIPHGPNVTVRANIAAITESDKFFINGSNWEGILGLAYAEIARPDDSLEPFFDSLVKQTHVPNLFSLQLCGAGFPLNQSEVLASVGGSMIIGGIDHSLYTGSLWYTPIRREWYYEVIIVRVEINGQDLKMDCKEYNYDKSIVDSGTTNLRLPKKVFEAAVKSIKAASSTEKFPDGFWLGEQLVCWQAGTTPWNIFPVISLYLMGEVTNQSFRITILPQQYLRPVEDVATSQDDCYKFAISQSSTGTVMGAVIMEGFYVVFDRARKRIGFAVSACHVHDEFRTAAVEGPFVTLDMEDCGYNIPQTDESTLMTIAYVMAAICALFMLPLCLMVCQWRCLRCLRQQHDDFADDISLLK

As for `CC1(c2cccc(CNC(=O)Nc3ccccc3)c2)CCSC(N)=N1` (stereo not shown) [Compound 4], the IC50 under setting [1] is less than 100 µM. For the compound `Cc1ccc(C(=O)Nc2cccc(C3(C)CCSC(N)=N3)c2)c(C)c1` (stereo not shown) [Compound 12], the IC50 under setting [1] is less than 100 µM. The same measure, in the same setting: the result for `CC1(c2cccc(NC(=O)COc3ccc(F)cc3)c2)CCSC(N)=N1` (stereo not shown) [Compound 17] reads less than 100 µM; that for `CC1(c2cc(NC(=S)c3ccc(Cl)cc3)cc(S(C)(=O)=O)c2)CCSC(N)=N1` (stereo not shown) [Compound 30], less than 100 µM.

Regarding `CC1(c2cc(NC(=O)c3ccc(Cl)cc3)ccc2F)CCSC(N)=N1` (stereo not shown) [Compound 31], the IC50 under setting [1] is less than 100 µM. For `CC1(c2cccc(NC(=O)c3cc(F)c(Cl)cc3F)c2)CCSC(N)=N1` (stereo not shown) [Compound 35], under setting [1], the IC50 is less than 100 µM. As for `CC1(c2cccc(NC(=S)Nc3ccc(Br)cc3)c2)CCSC(N)=N1` (stereo not shown) [Compound 43], the IC50 under setting [1] was less than 100 µM.

Turning to `C[C@@H](NC(=O)c1ccc(C2(C)CCSC(N)=N2)s1)c1ccccc1` (stereo partly shown) [Compound 52], the IC50 under setting [2] was found to be 10 µM. Turning to `Cc1ccc(S(=O)(=O)Nc2cc(C3(C)CCSC(N)=N3)ccc2F)cc1` (stereo not shown) [Compound 61], under setting [1], the concentration for half-maximal inhibition (IC50) was less than 100 µM. `COc1ccc(NC(=O)COc2cccc(C3(C)CCSC(N)=N3)c2)cc1` (stereo not shown) [Compound 67]: the IC50 under setting [1] is less than 100 µM. For the compound `CC1(c2cc(NC(=S)c3ccc(Br)cc3)cc(S(C)(=O)=O)c2)CCSC(N)=N1` (stereo not shown) [Compound 71], under setting [1], the IC50 was less than 100 µM. Take `COCCn1c(C(=O)Nc2cccc(C3(C)CCSC(N)=N3)c2)cc2ccccc21` (stereo not shown) [Compound 77]: under setting [1], the IC50 was less than 100 µM.

On to `Cn1c(CNc2cccc(C3(C)CCSC(N)=N3)c2)cc2ccccc21` (stereo not shown) [Compound 78], for which the 50% inhibitory concentration (IC50) under setting [1] is less than 100 µM. As to `CC1(c2cccc(NC(=O)c3ccc(CO)cn3)c2)CCSC(N)=N1` (stereo not shown) [Compound 80], the 50% inhibitory concentration (IC50) under setting [1] was less than 100 µM. Turning to `CC1(c2cc(Cl)cc(NC(=O)c3nc4ccccc4s3)c2)CCSC(N)=N1` (stereo not shown) [Compound 96], the IC50 under setting [2] was determined as 0.163 µM. With `CC1(c2cc(NC(=O)c3cocn3)ccc2F)CCSC(N)=N1` (stereo not shown) [Compound 97], the IC50 under setting [1] was less than 100 µM. For `CC1(c2cccc(OCC(=O)Nc3ccc(C(F)(F)F)cc3)c2)CCSC(N)=N1` (stereo not shown) [Compound 105], the concentration for half-maximal inhibition (IC50) under setting [1] is less than 100 µM. In the case of `CC1(c2cccc(OCC(=O)Nc3ccc(-n4cnc(Cl)c4Cl)cc3)c2)CCSC(N)=N1` (stereo not shown) [Compound 106], under setting [1], the IC50 is less than 100 µM. Still for that read-out and setting: the value for `CC1(c2cccc(NC(=O)Cc3cc(Cl)ccn3)c2)CCSC(N)=N1` (stereo not shown) [Compound 113] was less than 100 µM; that for `CCCNc1ccc(C(=O)Nc2cccc(C3(C)CCSC(N)=N3)c2)nc1` (stereo not shown) [Compound 114] was less than 100 µM. `CC1(c2cc(NC(=O)c3ccc[nH]3)ccc2F)CCSC(N)=N1` (stereo not shown) [Compound 115]: the IC50 under setting [1] was less than 100 µM. Consider `COc1ccc2nc(NC(=O)c3cccc(C4(C)CCSC(N)=N4)c3)sc2c1` (stereo not shown) [Compound 117], for which the IC50 under setting [1] is less than 100 µM. Take `CC1(c2cccc(NCC3CCCCC3)c2)CCSC(N)=N1` (stereo not shown) [Compound 120]: the half-inhibitory concentration (IC50) under setting [1] was less than 100 µM. Regarding `CC1(c2cccc(NC(=O)CCNC(=O)c3ccc(Cl)cn3)c2)CCSC(N)=N1` (stereo not shown) [Compound 134], the IC50 under setting [1] is less than 100 µM. For `CC1(c2cccc(NC(=O)c3ccc(OCc4ccccc4)cc3)c2)CCSC(N)=N1` (stereo not shown) [Compound 144], the IC50 under setting [1] is less than 100 µM. With `COc1ccc(C(=O)Nc2cccc(C3(C)CCSC(N)=N3)c2)cc1[N+](=O)[O-]` (stereo not shown) [Compound 154], under setting [1], the IC50 is less than 100 µM. On the same count and under the same terms, the value for `CC(C)Nc1cnc(C(=O)Nc2cccc(C3(C)CCSC(N)=N3)c2)cn1` (stereo not shown) [Compound 157] was less than 100 µM; that for `COc1ccc(NC(=O)NCc2cccc(C3(C)CCSC(N)=N3)c2)cc1` (stereo not shown) [Compound 159] was less than 100 µM. Turning to `CC1(c2cc(NC(=O)c3ccco3)cc(C(F)(F)F)c2)CCSC(N)=N1` (stereo not shown) [Compound 163], under setting [2], the IC50 is 2.28 µM. As for `Cc1cc(C(=O)Nc2cccc(C3(C)CCSC(N)=N3)c2)ccc1Cl` (stereo not shown) [Compound 172], the IC50 under setting [1] is less than 100 µM. For the compound `CC1(c2cccc(NC(=O)c3ccc(OC(F)(F)F)cc3)c2)CCSC(N)=N1` (stereo not shown) [Compound 175], the IC50 under setting [1] is less than 100 µM. On to `COCc1cc(NC(=O)c2ccco2)cc(C2(C)CCSC(N)=N2)c1` (stereo not shown) [Compound 176], for which the IC50 under setting [2] was 1.48 µM. Turning to `CC1(c2cccc(NC(=O)Nc3ccc(Cl)cc3)c2)CCSC(N)=N1` (stereo not shown) [Compound 181], the IC50 under setting [1] is less than 100 µM. As for `CC1(c2cccc(NC(=O)c3ccc(Cl)cc3Cl)c2)CCSC(N)=N1` (stereo not shown) [Compound 182], under setting [1], the concentration for half-maximal inhibition (IC50) is less than 100 µM. The same measure, in the same setting: the value for `COc1ccc(C2(C)CCSC(N)=N2)cc1C(=O)Nc1ccc(Cl)cn1` (stereo not shown) [Compound 186] was less than 100 µM. Consider `CC1(c2cccc(C(=O)Nc3ccc(Cl)cn3)c2)CCSC(NC(=N)N)=N1` (stereo not shown) [Compound 189], for which, under setting [1], the IC50 is less than 100 µM. As to `CC1(c2cccc(OCC(=O)Nc3ccccc3)c2)CCSC(N)=N1` (stereo not shown) [Compound 200], the IC50 under setting [1] was less than 100 µM. `CC1(c2cccc(NC(=O)c3ccc(I)cc3)c2)CCSC(N)=N1` (stereo not shown) [Compound 201]: the IC50 under setting [1] was less than 100 µM. As to `CC1(c2cccc(NC(=O)c3cccc4c3OCCO4)c2)CCSC(N)=N1` (stereo not shown) [Compound 207], the IC50 under setting [1] is less than 100 µM. Consider `CC1(c2cccc(NC(=O)c3ccc([N+](=O)[O-])cc3)c2)CCSC(N)=N1` (stereo not shown) [Compound 209], for which the IC50 under setting [1] was less than 100 µM. As for `CCCCCOc1ccc(NC(=O)COc2cccc(C3(C)CCSC(N)=N3)c2)cc1` (stereo not shown) [Compound 211], the IC50 under setting [1] was less than 100 µM. For the compound `COc1cnc(C(=O)Nc2cccc(C3(C)CCSC(N)=N3)c2)c(N(C)C)n1` (stereo not shown) [Compound 214], the IC50 under setting [1] was less than 100 µM. On to `CC1(c2cccc(NC(=O)c3ccc(F)c(Br)c3)c2)CCSC(N)=N1` (stereo not shown) [Compound 215], for which the IC50 under setting [1] is less than 100 µM. Still for that read-out and setting: the result for `CC1(c2cccc(NC(=O)CCNC(=O)c3ccc(F)cc3)c2)CCSC(N)=N1` (stereo not shown) [Compound 216] reads less than 100 µM; that for `CC1(c2cccc(NC(=O)c3ccc4ncsc4c3)c2)CCSC(N)=N1` (stereo not shown) [Compound 228], less than 100 µM; that for `Cc1ccc([S+]([O-])Nc2ccc(F)c(C3(C)CCSC(N)=N3)c2)cc1` (stereo not shown) [Compound 232], less than 100 µM. Same read-out and setting: the result for `Cc1cccnc1C(=O)Nc1cccc(C2(C)CCSC(N)=N2)c1` (stereo not shown) [Compound 240] reads less than 100 µM. In the case of `CC1(c2cccc(OCC(=O)Nc3ccc(Cl)cc3)c2)CCSC(N)=N1` (stereo not shown) [Compound 246], the IC50 under setting [2] was determined as 2.9 µM.

Turning to `CC1(c2ccc(F)c(C(=O)Nc3nccs3)c2)CCSC(N)=N1` (stereo not shown) [Compound 251], the IC50 under setting [1] is less than 100 µM. Consider `Cc1ccc(CNc2cccc(C3(C)CCSC(N)=N3)c2)cc1` (stereo not shown) [Compound 259], for which the IC50 under setting [1] was less than 100 µM.

As to `CC1(c2cccc(OCC(=O)Nc3cccc(O)c3)c2)CCSC(N)=N1` (stereo not shown) [Compound 269], under setting [2], the IC50 was 7 µM. Take `CC1(c2cccc(NC(=O)c3cccc(Br)c3)c2)CCSC(N)=N1` (stereo not shown) [Compound 273]: under setting [1], the IC50 was less than 100 µM.

As to `CC1(c2ccc(NC(=O)c3ccc(Br)cc3)cc2)CCSC(N)=N1` (stereo not shown) [Compound 278], under setting [1], the 50% inhibitory concentration (IC50) is less than 100 µM. Consider `CC1(c2cccc(NC(=O)c3ccc(N)cn3)c2)CCSC(N)=N1` (stereo not shown) [Compound 279], for which the half-inhibitory concentration (IC50) under setting [1] is less than 100 µM. Take `CC1(c2cccc(CNc3ccccn3)c2)CCSC(N)=N1` (stereo not shown) [Compound 281]: under setting [1], the IC50 was less than 100 µM. With `CC1(c2cccc(NC(=O)c3cccc(Cl)n3)c2)CCSC(N)=N1` (stereo not shown) [Compound 298], the half-maximal inhibitory concentration (IC50) under setting [1] was less than 100 µM.

As to `CC(C)Oc1ccc(C(=O)Nc2cccc(C3(C)CCSC(N)=N3)c2)nc1` (stereo not shown) [Compound 299], the IC50 under setting [1] was less than 100 µM. As for `COc1ccc(C(=O)Nc2cccc(C3(C)CCSC(N)=N3)c2)cc1` (stereo not shown) [Compound 300], the IC50 under setting [1] was less than 100 µM. As to `CC1(c2cccc(NC(=O)c3cc4ccccc4o3)c2)CCSC(N)=N1` (stereo not shown) [Compound 303], the IC50 under setting [1] is less than 100 µM. Take `Cc1nocc1C(=O)Nc1cccc(C2(C)CCSC(N)=N2)c1` (stereo not shown) [Compound 307]: the IC50 under setting [1] is less than 100 µM. For `CC(=O)c1ccc(C(=O)Nc2cccc(C3(C)CCSC(N)=N3)c2)cc1` (stereo not shown) [Compound 314], the IC50 under setting [1] was less than 100 µM. With `CC1(c2cccc(NC(=O)c3ccc(NC(=O)c4ccccn4)cn3)c2)CCSC(N)=N1` (stereo not shown) [Compound 319], the IC50 under setting [1] is less than 100 µM.

Consider `CC1(c2cccc(NC(=O)c3ccc(-n4cccn4)cc3)c2)CCSC(N)=N1` (stereo not shown) [Compound 321], for which the IC50 under setting [1] is less than 100 µM. For the compound `COc1ccc(NC(=O)COc2cccc(C3(C)CCSC(N)=N3)c2)cc1F` (stereo not shown) [Compound 322], under setting [1], the IC50 was less than 100 µM. The same measure, in the same setting: the value for `CC1(c2cccc(OCC(=O)Nc3ccc(OC(F)(F)F)cc3)c2)CCSC(N)=N1` (stereo not shown) [Compound 326] was less than 100 µM; that for `COC(=O)c1ccc(C(=O)Nc2cccc(C3(C)CCSC(N)=N3)c2)cc1` (stereo not shown) [Compound 328] was less than 100 µM.

On to `CC1(c2cc(NC(=O)c3ccc(F)cc3)cc(S(C)(=O)=O)c2)CCSC(N)=N1` (stereo not shown) [Compound 330], for which the half-maximal inhibitory concentration (IC50) under setting [1] is less than 100 µM. For the compound `CC1(c2cccc(NC(=O)c3ccco3)c2)CCSC(N)=N1` (stereo not shown) [Compound 335], under setting [1], the IC50 is less than 100 µM. On to `CC1(c2cccc(CCC(=O)Nc3ccc(Cl)cc3)c2)CCSC(N)=N1` (stereo not shown) [Compound 341], for which the IC50 under setting [1] is less than 100 µM. `CC1(c2cc(NC(=O)c3cc4ccccc4[nH]3)ccc2F)CCSC(N)=N1` (stereo not shown) [Compound 344]: the IC50 under setting [1] was less than 100 µM. The same measure, in the same setting: the value for `CC1(c2ccc(F)c(NC(=O)c3ccccc3C(F)(F)F)c2)CCSC(N)=N1` (stereo not shown) [Compound 345] was less than 100 µM; that for `COC(=O)c1cccc(C(=O)Nc2cccc(C3(C)CCSC(N)=N3)c2)c1` (stereo not shown) [Compound 346] was less than 100 µM.

Turning to `Cc1cccc(C(=O)Nc2cccc(C3(C)CCSC(N)=N3)c2)n1` (stereo not shown) [Compound 348], the 50% inhibitory concentration (IC50) under setting [1] is less than 100 µM.
